Measurements as given in patent US10722501B2 (BAYER AKTIENGESELLSCHAFT, priority 2016, dated 2020).

What follows are compounds tested against T1, recombinant full-length human prolyl endopeptidase (PREP) (Homo sapiens, UniProt P48147) (assay: Biochemical human prolyl endopeptidase (PREP) assay with fluorescently labelled substrate). Settings: substrate Z-Gly-Pro-AMC 50 μM, 32° C., 60 min; some as mean values from multiple independent determinations.
T1 construct: To recombinant full-length human prolyl endopeptidase (PREP, R&D-Systems, 4308-SE); purchased R&D-Systems 4308-SE
T1 sequence (P48147 1-710): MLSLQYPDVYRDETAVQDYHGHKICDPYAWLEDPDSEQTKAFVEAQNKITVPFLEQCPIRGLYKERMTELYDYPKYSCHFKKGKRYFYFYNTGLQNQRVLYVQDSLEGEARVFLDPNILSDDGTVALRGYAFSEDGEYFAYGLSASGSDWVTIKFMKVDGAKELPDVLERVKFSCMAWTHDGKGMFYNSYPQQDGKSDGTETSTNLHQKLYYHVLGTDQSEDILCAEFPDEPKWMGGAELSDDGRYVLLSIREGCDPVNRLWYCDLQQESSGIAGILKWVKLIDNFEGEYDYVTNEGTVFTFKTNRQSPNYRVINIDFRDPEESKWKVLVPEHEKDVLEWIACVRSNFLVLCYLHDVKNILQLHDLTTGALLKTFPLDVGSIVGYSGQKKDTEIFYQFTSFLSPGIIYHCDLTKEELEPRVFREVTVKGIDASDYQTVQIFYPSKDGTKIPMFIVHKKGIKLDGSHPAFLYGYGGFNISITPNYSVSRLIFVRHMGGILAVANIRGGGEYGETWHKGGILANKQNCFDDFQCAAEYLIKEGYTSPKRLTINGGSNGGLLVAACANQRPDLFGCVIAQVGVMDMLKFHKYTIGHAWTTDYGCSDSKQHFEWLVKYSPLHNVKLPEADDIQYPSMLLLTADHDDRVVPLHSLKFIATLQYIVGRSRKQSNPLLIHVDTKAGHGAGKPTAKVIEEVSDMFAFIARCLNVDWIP
Summary of the method: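 Initial rates of fluorescence increase from 50 μM Z-Gly-Pro-AMC cleavage (ex 360/em 465 nm, 60 min, 32° C) give percent PREP activity versus no-compound control, and IC50 is interpolated. Enzyme used at 0.4 nM (final, example) in Tris pH 7.5 with EDTA, GSH, BSA and Brij-35; compounds span 1 nM to 30 μM.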
`O=C(C1CC(C(F)(F)F)Cc2nn(Cc3ccnc(C(F)(F)F)c3F)c(=O)n21)N1CC[C@H](F)C1` (mixture of isomers) [Example 256, (5RS,7RS)-5-{[(3S)-3-Fluoropyrrolidin-1-yl]carbonyl}-2-{[3-fluoro-2-(trifluoromethyl)pyridin-4-yl]methyl}-7-(trifluoromethyl)-5,6,7,8-tetrahydro[1,2,4]triazolo[4,3-a]pyridin-3(2H)-one] showed an IC50 of 1.7 nM. Work on `O=C(C1CC(C(F)(F)F)Cc2nn(Cc3ccc(Cl)nc3)c(=O)n21)N1CC[C@H](F)C1` (mixture of isomers) [Example 242, (5RS,7RS)-2-[(6-Chloropyridin-3-yl)methyl]-5-{[(3S)-3-fluoropyrrolidin-1-yl]carbonyl}-7-(trifluoromethyl)-5,6,7,8-tetrahydro[1,2,4]triazolo[4,3-a]pyridin-3(2H)-one] yielded an IC50 of 2 nM. With `COc1cccc(Cn2nc3n(c2=O)C(C(=O)N2CCCC2)CCC3)c1` (racemic) [Example 20, (5RS)-2-(3-Methoxybenzyl)-5-(pyrrolidin-1-ylcarbonyl)-5,6,7,8-tetrahydro[1,2,4]triazolo[4,3-a]pyridin-3(2H)-one] the IC50 was 1.5 nM. For `O=C([C@@H]1CCCc2nn(Cc3ccc(C(F)(F)F)c(Cl)c3)c(=O)n21)N1CC[C@H](F)C1` [Example 461, (5S)-2-[3-Chloro-4-(trifluoromethyl)benzyl]-5-{[(3S)-3-fluoropyrrolidin-1-yl]carbonyl}-5,6,7,8-tetrahydro[1,2,4]triazolo[4,3-a]pyridin-3(2H)-one], the IC50 was 0.625 nM. For `O=C(C1CCCc2nn(Cc3ccc(Cl)nc3)c(=O)n21)N1CCCC1` (racemic) [Example 31, (5RS)-2-[(6-Chloropyridin-3-yl)methyl]-5-(pyrrolidin-1-ylcarbonyl)-5,6,7,8-tetrahydro[1,2,4]triazolo[4,3-a]pyridin-3(2H)-one], the IC50 was 2.9 nM. In the case of `Cc1ccc(Cn2nc3n(c2=O)[C@H](C(=O)N2CC(C)C2)CCC3)cc1` [Example 192, (5S)-5-[(3-Methylazetidin-1-yl)carbonyl]-2-(4-methylbenzyl)-5,6,7,8-tetrahydro[1,2,4]triazolo[4,3-a]pyridin-3(2H)-one], the IC50 is reported as 0.32 nM. For `O=C(C1CC(C(F)(F)F)Cc2nn(Cc3ccc(Cl)cn3)c(=O)n21)N1CCC(F)(F)C1` (single isomer, unassigned) [Example 567, (5RS,7RS)-2-[(5-Chloropyridin-2-yl)methyl]-5-[(3,3-difluoropyrrolidin-1-yl)carbonyl]-7-(trifluoromethyl)-5,6,7,8-tetrahydro[1,2,4]triazolo[4,3-a]pyridin-3(2H)-one], the IC50 was 2.7 nM. For `O=C([C@@H]1CCCc2nn(Cc3cc4cccnc4nc3C(F)(F)F)c(=O)n21)N1CC[C@H](F)C1` [Example 419, (5S)-5-{[(3S)-3-Fluoropyrrolidin-1-yl]carbonyl}-2-{[2-(trifluoromethyl)-1,8-naphthyridin-3-yl]methyl}-5,6,7,8-tetrahydro[1,2,4]triazolo[4,3-a]pyridin-3(2H)-one], the IC50 was 0.88 nM. `Cc1ccc(Cn2nc3n(c2=O)C(C(=O)N2C[C@H]4C[C@H]4C2)CCC3)cc1` (mixture of isomers) [Example 126, (5RS)-5-[(cis)-3-Azabicyclo[3.1.0]hex-3-ylcarbonyl]-2-(4-methylbenzyl)-5,6,7,8-tetrahydro[1,2,4]triazolo[4,3-a]pyridin-3(2H)-one] was tested, and the IC50 was 28.4 nM. For `O=C(C1CC(C(F)(F)F)Cc2nn(Cc3ccnc(C(F)(F)F)c3F)c(=O)n21)N1CC[C@H](F)C1` (single isomer, unassigned) [Example 257], the IC50 was 0.595 nM. `O=C([C@@H]1CCCc2nn(CC3(c4ccc(F)cc4)CC3)c(=O)n21)N1CC(F)C1` [Example 351, (5S)-5-[(3-Fluoroazetidin-1-yl)carbonyl]-2-{[1-(4-fluorophenyl)cyclopropyl]methyl}-5,6,7,8-tetrahydro[1,2,4]triazolo[4,3-a]pyridin-3(2H)-one] was tested, and the IC50 was 1.6 nM. Compound `O=C([C@@H]1CCCc2nn(Cc3cc(F)c(F)cc3F)c(=O)n21)N1CC[C@H](F)C1` [Example 493, (5S)-5-{[(3S)-3-Fluoropyrrolidin-1-yl]carbonyl}-2-(2,4,5-trifluorobenzyl)-5,6,7,8-tetrahydro[1,2,4]triazolo[4,3-a]pyridin-3(2H)-one] has an IC50 of 0.32 nM.
